The text below walks through data of US20230107274A1, “AN ORAL PHARMACEUTICAL COMPOSITION COMPRISING AN EXTRACT OF COMBINED HERBS COMPRISING LONGANAE ARILLUS FOR THE TREATMENT OR ALLEVIATION OF INFLAMMATORY DISEASE AND THE USE THEREOF” (MEDIHELPLINE CO., LTD, priority 2020, published 2023).

Assay [1] concerns MIA(Monosodium iodoacetate)-induced osteoarthritis rat model. The assay can be described thus: Pain threshold (dynamic plantar aesthesiometer) in MIA-induced osteoarthritis rat model. In kind it is in vivo. On the procedure:
(§1) In order to evaluate the efficacy of test sample on MIA(Monosodium iodoacetate)-induced osteoarthritis rat model, following test was performed at “Joint and Immune disease T2B center(chief MD. PARK, Sung-whan) located in “The Catholic University of Korea, Seoul ST. Mary's Hospital, Seoul).
(§2) (1) Test animals: Rats (Male Wista rats, Central Lab. Animal, Seoul, Korea, 7 to 8 weeks aged, 200 to 250 g) were bred in the well-controlled breeding room in polysulfone cage (2-3 […] per cage) maintaining the temperature of 21±2° C. and relative humidity of 50±20% with the light cycle of day/dark (08:00˜20:00) at the interval of 12 hours and acclimated to the surround environment
(§3) Test method: 3 mg/kg of Monosodium iodoacetate (MIA, 12512, Sigma, Poole, UK) was dissolved in the injection saline to re reach to 60 mg/ml concentration on the day of the experiment (day 0). After dividing each groups, the experimental animals were placed in the anesthesia chamber and anesthetized with diethyl ether. 50 μL of MIA (3 mg/body) was injected into the right knee joint through the infrapatellar ligament using a 1cc syringe (26.5 gauge) in order to inducing osteoarthritis
(§4) (4) Treatment route: oral administration 3 days after inducing osteoarthritis (once a day)
(§5) After inducing osteoarthritis with MIA, test sample treatment groups (G2, G3) were prepared by homogenizing the test samples with vehicle (saline) according to the prescribed dose and orally administrating 1 mL of test sample once a day.
The positive control group (G4) was homogenized to the vehicle according to the prescribed dose and orally administered once a day.
24 rats were divided into 4 groups per 6 rats, and the test samples and positive control substance were orally administered at a specified time.
The pain threshold (nociceptive latency, threshold) was determined by using dynamic plantar aesthesiometer (Ugo Basile, 37400, Comerio, Italy), a device that gradually increases the force on the feet of Male Wistarats over a certain period of time, according to a […] evaluation method to measure pain thresholds ((Kwon J Y et al., Sci Rep. 2018 Sep. 14; 8(1):13832)
Prior to measurement, the animal was placed in an acrylic box with a wire mesh bench and acclimated for five minutes.
The pain threshold was determined by measuring the weight showing paw withdrawal behavior which animal withdraws its feet by applying a slow force of 0 to 50 g over 10 seconds using metal filaments in the center of each animal's right hind foot.
To avoid tissue damage, the cut-off threshold was set to 50 g, and the measurement time was set to the day before the inducing day of osteoarthritis by the treatment of MIA to calculate base line value in the normal control group (G1), test sample groups (G2, G3) and positive control group (G4) and the same value was obtained in the base line (day 3).
The same value was measured before the treatment of test samples (day 3) and the value was measured once a week at a certain time by administering the test samples in the […] of rats.
The test result of pain threshold was calculated according to (a) paw withdrawal latencies (sec) and (b) paw withdrawal threshold (g).

The test system is the same in assay [2]. The assay can be described thus: Bone injury by micro-CT in MIA-induced osteoarthritis rat model. In kind it is in vivo. To be noted: 30 mg/kg oral once a day; vehicle 45.7. On the procedure:
as §1, §2
Test method: 3 mg/kg of Monosodium iodoacetate (MIA, 12512, Sigma, Poole, UK) was dissolved in the injection saline to re reach to 60 mg/ml concentration on the day of the experiment (day 0). […]
The degree of bone injury around femur area of the knee joint in each group consisting of 3 rats, was determined using X-ray source (70 kV, 142 uA, AI 0.5 mm filter, rotation step 0.6°) and animal scanner (SKYSCAN1272 ex-vivo micro-CT, Bruker micro CT, Belgium) to perform micro-CT photography at 15 μm of Pixel resolution including section formation (NRecon), section rotation (Data Viewer), data Analysis (CTAN), Volume rendering generation (CTVox), and surface rendering (CTAN+CTVol).

The test system is the same in assay [3]. Nature of the assay: Bone injury by histopathological analysis (Safranin O; Total Mankin score, OARSI score) in MIA-induced osteoarthritis rat model. In kind it is in vivo. As to conditions: 30 mg/kg oral once a day. On the procedure:
as §1, §2
Test method: 3 mg/kg of Monosodium iodoacetate (MIA, 12512, Sigma, Poole, UK) was dissolved in the injection saline to re reach to 60 mg/ml concentration on the day of the experiment (day 0). After dividing each groups, the experimental animals were placed in the anesthesia chamber and anesthetized with diethyl ether. […]
The histopathological analysis was performed by photographing the femur area of knee joint (×200 fold). The test result was calculated and evaluated according to the known methods including Total Mankin score (Bulstra S K et al., 1989, Clin Orthop Relat Res: 294-302.) and OARSI score (Pritzker K. P. H. et al., 2006, Osteoarthritis Cartilage 14:13-29).

Assay [4] shares this test system. Nature of the assay: Weight bearing in MIA-induced osteoarthritis rat model. In kind it is in vivo. On the procedure:
as §1, §2, §3, §4, §5
In order to measure the change in weight (or weight distribution) between normal hind legs (left) and arthritis-induced hind legs (right), the load of both hind feet was determined using testing apparatus (Model 600, IITC, USA) according to the method described in the literature (Kwon J Y et al., Sci Rep. 2018 Sep. 14; 8(1):13832).
The test animal shall be correctly located in the holder and fixed so that both feet can be stepped symmetrically, since the load can be varied depending on the position of the animal's foot. The particular person performs the fixation to reduce the possible error to the maximum extent.
When each animal was correctly located in the holder, the machine was operated and the weight bearing of each group was measured twice for 5 seconds per measurement.
The mean value for each test result was digitized into the weight bearing(g) of each foot.
After obtaining a baseline value before MIA treatment (Day 0), the weight bearing in the normal control group (G1), test sample groups (G2, G3) and positive control group (G4), was determined at a certain time twice a week, 3 days before the treatment of test sample (day 3).
The test results of the weight load measurement were transformed into each weight bearing ratio according to below Math 1.
Weight ratio (%)={weight of right hind limb/(weight of right hind limb+weight of left hind limb)}×100 [Math.1]

For the next assay, the system named is IL-1β. The assay can be described thus: Inhibition of cytokine expression in TNF alpha-induced HaCaT cell (Real-time PCR): IL-1β. In kind it is cell-based, human. As to conditions: TNFα 50 ng/ml, Dexamethasone 200 nM, TNFα+DIW control 4.152715. On the procedure: (§6) In order to determine the anti-inflammatory activity of inventive extract, following inhibition test of cytokine expression using HaCaT cell was performed according to the procedure disclosed in the literature (Jeong et al., 2019, J. Invest. Dermatol., May; 139 (5): pp 1098-1109).
(§7) HaCaT cell (human epithelial keratinocyte cell, 300493, CLS) was inoculated into DMEM medium containing 10% Fetal bovine serum, 100 units/ml of penicillin, 100 μg/ml of streptomycin (D6429, Sigma-Aldrich Co. Ltd) and was incubated in the incubator (HERA cell 150i, Thermo Fisher Scientific Co. Ltd.) maintaining optimum humidity (85-95%) and 5% CO2 atmosphere.
(§8) For performing gene expression test, the incubated cells were transferred to 12 wells and 50 ng/ml of TNF alpha (RC214-12, Biobasic Co. Ltd) was treated therewith for 1 hour to induce inflammatory response.
(§9) 1 hour after inducing the inflammation, 1 μg/ml of inventive extract prepared in Examples was treated with identical medium and subjected to incubation for 1 hour. After the incubation, RNA (FATRR-001, Favorgen) was extracted from the cell and cDNA was synthesized from the RNA using by cDNA synthesis kit (RRO36A, TAKARA). […]
In general terms: In qPCR the cycle at which signal appears reflects the starting amount.

In a further assay the test system is TSLP. The assay can be described thus: Inhibition of cytokine expression in TNF alpha-induced HaCaT cell (Real-time PCR): TSLP. In kind it is cell-based, human. As to conditions: TNFα 50 ng/ml, Dexamethasone 200 nM, TNFα+DIW control 132.4692. Here is the method: as §6, §7, §8, §9

As for `Cc1ccc(-c2cc(C(F)(F)F)nn2-c2ccc(S(N)(=O)=O)cc2)cc1` [Celecoxib], the paw withdrawal latencies was 9.9 ± 2.2 s in assay [1] (30 mg/kg oral once a day, 6 days after MIA treatment, vehicle 8.6); 10.2 ± 0.9 s in assay [1] (30 mg/kg oral once a day, 11 days after MIA treatment, vehicle 9.1); 10.4 ± 0.9 s in assay [1] (30 mg/kg oral once a day, 13 days after MIA treatment, vehicle 9.0); 10.9 ± 1.8 s in assay [1] (30 mg/kg oral once a day, 17 days after MIA treatment, vehicle 9.5); 11.9 ± 1.5 s in assay [1] (30 mg/kg oral once a day, 21 days after MIA treatment, vehicle 9.0); 11.6 ± 1.0 s in assay [1] (30 mg/kg oral once a day, 25 days after MIA treatment, vehicle 9.0). Further, the paw withdrawal latencies came out at 16.0 ± 1.5 s in assay [1] (30 mg/kg oral once a day, Before MIA treatment (baseline), vehicle 16.8) and 9.2 ± 2.1 s in assay [1] (30 mg/kg oral, 3 days after MIA treatment (before first dose), vehicle 9.4). Moreover, the paw withdrawal threshold came out at 19.9 ± 4.3 g in assay [1] (30 mg/kg oral once a day, 6 days after MIA treatment, vehicle 17.4); 20.7 ± 1.7 g in assay [1] (30 mg/kg oral once a day, 11 days after MIA treatment, vehicle 18.5); 21.0 ± 1.6 g in assay [1] (30 mg/kg oral once a day, 13 days after MIA treatment, vehicle 18.3); 22.0 ± 3.4 g in assay [1] (30 mg/kg oral once a day, 17 days after MIA treatment, vehicle 19.2); 24.0 ± 2.9 g in assay [1] (30 mg/kg oral once a day, 21 days after MIA treatment, vehicle 18.3); 23.4 ± 1.9 g in assay [1] (30 mg/kg oral once a day, 25 days after MIA treatment, vehicle 18.2). Besides, the paw withdrawal threshold in assay [1] (30 mg/kg oral once a day, Before MIA treatment (baseline), vehicle 33.6) turned out to be 33.8 ± 2.9 g; in assay [1] (30 mg/kg oral, 3 days after MIA treatment (before first dose), vehicle 19.0), 18.6 ± 4.1 g. In addition, the “Bone surface (Micro-CT, femur area of knee joint)” value in assay [2] came to 57.5 ± 0.5%. Moreover, in assay [3] (vehicle 4), the OARSI score worked out at 2.4 ± 0.4. Further, the “Total Mankin score” value in assay [3] (vehicle 7.5) is 4 ± 0.6. Moreover, the “weight bearing, weight ratio of right hind limb” value in assay [4] (30 mg/kg oral once a day, 6 days after MIA inducement, vehicle 35.5) came out at 38.5 ± 1.8%; in assay [4] (30 mg/kg oral once a day, 11 days after MIA inducement, vehicle 33.8), 40.0 ± 3.2%; in assay [4] (30 mg/kg oral once a day, 13 days after MIA inducement, vehicle 32.3) it was 44.5 ± 0.7%; in assay [4] (30 mg/kg oral once a day, 17 days after MIA inducement, vehicle 32.2), 43.9 ± 1.3%; in assay [4] (30 mg/kg oral once a day, 21 days after MIA inducement, vehicle 31.6) it was 39.7 ± 3.7%; in assay [4] (30 mg/kg oral once a day, 25 days after MIA inducement, vehicle 33.3), 41.7 ± 1.9%. For the same compound, the “weight bearing, weight ratio of right hind limb” value in assay [4] (30 mg/kg oral once a day, Before MIA inducement (baseline), vehicle 50.6) is reported as 49.3 ± 0.9%; in assay [4] (30 mg/kg oral, 3 days after MIA inducement (before first dose), vehicle 36.9), 34.7 ± 4.0%.

Take `C[C@@H]1C[C@H]2[C@@H]3CCC4=CC(=O)C=C[C@]4(C)[C@@]3(F)[C@@H](O)C[C@]2(C)[C@@]1(O)C(=O)CO` [Dex, Dexamethasone]: the “IL-1β expression (RT-PCR, relative to untreated = 1)” value with IL-1β was determined as 1.081. Also, in the assay on TSLP, the “TSLP expression (RT-PCR, relative to untreated = 1)” value was 52.49.
